# Data from patent US20050208125A1, “Substantially pure solid form of the enol tautomer of 3-indolypyruvic acid for use in the treatmetn of central nervous system disturbances” (priority 2002, published 2005).
# Where two headings read alike, the source gives them in different places.
# Assays:
# [1] = system: LAN5 human neuroblastoma cells; test: Neuronal cell sprouting (neurite length); type: cell-based; details: 10 μM, 7 days; for average length of the neurites: ± SD, untreated 21.8 ± 8.8
# Protocol: LAN5 human neuroblastoma cells were seeded in 6-well plates (25.000 cells/well) in DMEM (Dulbecco's Modified Eagle's Medium) medium, additioned with 10% -fetal serum and 40 micrograms/ml gentamycin. After 24 hours, the enol tautomer of 3-indolylpyruvic acid or its derivatives, at an end concentration of 10 μM was added to the culture medium. The treatment was continued for 7 days, with medium replacement and addition of the compound under test every three days. At +7 days the cells were photopgraphed, using a Leitz Dialux 20 microscope. Then, neurite length was measured.
# The results, reported in the following Table, express, in microns, the average length of the neurites for each treatment; ± is the standard deviation: […]
# [2] = system: Human melanoma cells (A2058 line); test: Melanoma cell invasion through Matrigel; type: cell-based; details: mean of three experiments ± SD
# Text: Matrigel is an extracellular biological matrix extracted from the Englebreth-Holm-Swarm murine sarcoma, composed of the major components of the basement membrane like laminin, entactin, collagen IV and proteoglycans. At room temperature, Matrigel forms a gel that can promote the growth of primary and continuous cell lines, and moreover can act as medium (substrate) for the adhesion, the differentiation, the migration and the invasion of tumor cell lines. Due to such features, a Matrigel test is commonly used in order to characterize the activity of substances capable of interfering with the motility of tumor cells and of inflammatory response cells. The test is conducted in wells partitioned by an 8 micron pore size membrane: Matrigel (12.4 micrograms) is uniformly spread on the membrane, whereas a chemoattractant (600 microliters), consisting of the supernatant of a murine hembryo cell line (3T3) is inserted in the bottom section of the well. The cells to be tested are seeded in the top section of the well, whereas the compounds that could interfere with their motility are placed above as well as below the membrane, so as to prevent the formation of a concentration gradient. At the end of the experiment, the cells that have crossed the membrane are counted.
# Human melanoma cells (A2058 line) were cultured in MEM medium, in a 5% CO2 at 37° C. Having reached the desired growth level, the (100.000) cells were seeded in the top section of the well. The enol of 3-indolylpyruvic acid and its salts, solubilized in the cell culture medium were placed in the top and bottom section of the well.
# [3] = Solubility of the enol form in solvents; type: physicochemical
# [4] = Stability of the enol form in solution (UV 325 nm peak, HPLC); type: physicochemical
# Text: When the enol tautomer of 3-indolylpyruvic acid is solubilized in an aqueous environment, the decline of the UV peak at 325 nm, more or less quick according to the solution temperature, the pH and the type of buffer used is immediately observed. […] In the experimental conditions used, a quicker disappearance of the 325 nm peak is observed when the enol tautomer of the ketoacid is solubilized in diluted NaOH solutions; it follows that in this solvent the keto-enol equilibrium shifts towards the keto form in a few seconds.
# At longer incubation times also the gem-diole form disappears, without giving rise to the keto form.
# In particular, using a phosphate solution at pH 7.4, it is observed that the enol form drops to the 44% already at +30 min, whereas the gem-diole form begins to predominate (increase) at +1 hour (44% vs 23%), yet it stabilizes at about +2 hours (49%), and then gradually declines.
# [5] = Incubation in rat tissue homogenates, enol form versus keto form; type: in vitro ADME
# Text: (§1) The near-pure enol tautomer of 3-indolylpyruvic acid, obtained by the method described above in examples 1 and 2, was investigated on rat tissue homogenates, in order to highlight its participation in the methabolic pathways characterizing the use of tryptophan and of its derivatives in mammalian cells. […] This phenomenon, ascribed to the presence in biological fluids of a specific tautomerase already reported in literature, allows the enol form to be subjected to biochemical transformations by specific enzymes active on the indoles. In particular, when the enol form of the ketoacid is incubated in rat liver homogenates, a gradual transformation of the enol of 3-indolylpyruvic acid in tryptophan is observed: the transformation is rather linear in time, is independent from the pH—at least in the 6.5÷7.5 interval—and it leads to the conversion of over the 50% of the ketoacid in 5 hours.
# [6] = Incubation in rat liver homogenates; type: in vitro ADME
# Text: as §1, with “a gradual transformation of the enol of 3-indolylpyruvic acid in tryptophan is observed: the transformation” left out
# [7] = Plasma levels in rats after gastric lavage; type: in vivo; details: rat, oral, read-out: plasma level
# Protocol: Raising the dose to 400 mg/Kg, values of 160±13 mcg/ml for acute administration and of 189±68 mcg/ml for chronic administration were obtained.
# [8] = Plasma levels in dogs after administration in food-mixed pellets; type: in vivo; details: dog, oral
# Protocol: In dogs as well analogous results were obtained, as the administration (in food-mixed pellets) of 100 mg/Kg enol form of 3-indolylpyruvic acid led, at +1 hour, to plasma rates of 106±47 -mcg/ml in acute, and of 97±17 mcg/ml in chronic. 285 mg/Kg doses produced, at +1 hour,concentrations of 136±17 mcg/ml in acute, and of 120±8 mcg/ml in chronic.
# [9] = system: superoxide anion; test: Neutralizing power towards oxygen free radicals; type: biochemical; details: contrarily to the keto tautomer form
# Protocol: (§2) It is already known from literature that the 3-indolylpyruvic acid may function, in suitable methabolic situations, as direct precursor to the kynurenic acid, the most important endogenous inhibitor of the excitatory amino acids. […] Therefore, comparison tests were conducted between the enol form of 3-indolylpyruvic acid, obtained according to the method described above in examples 1 and 2, the keto form (obtained solubilizing a standard preparation of 3-indolylpyruvic acid obtained from commercial sources in 0.1M NaOH), and a mixture of the two forms (obtained solubilizing the above standard preparation in a pH 7.4 phosphate buffer). […] Moreover, the enol form is found to be 100 to 1000 times more powerful than the keto one, both in protecting membrane phospholipids from degradation and in blocking luminol chemiluminescence induced by a xanthin/xanthin oxidase mixture. Concerning the formation of kynurenic acid, under the same experimental conditions the enol form of 3-indolylpyruvic acid always produced from 20 to 100 times more kynurenic acid than the keto form or the mixture of the two forms. […] Concomitantly, kynurenic acid began to form, reaching a plasma peak at +90-+180 min from the enol injection, with remarkable interindividual variations.
# [10] = Intravenous injection in baboons, enol and kynurenic acid plasma kinetics; type: in vivo, baboon; details: intravenously, 200 mg/Kg
# Protocol: as §2
# [11] = system: rats; test: Pharmacological tests in rats, oral and IP; type: in vivo, rat
# [12] = cited from earlier work
# [13] = phosphate solution pH 7.4, +1 hour
structure (smiles),measurement,setting,value
"O=C(O)Cc1c[nH]c2ccc(O)cc12 [5-Hydroxy-Indolylacetic acid, reference compound]",effect on neurite length (in words),[1],do not influence neurite length
same,average length of the neurites,[1],25.7 ± 13.2 micrometers
"O=C([O-])C(O)=Cc1c[nH]c2ccccc12.O=C([O-])C(O)=Cc1c[nH]c2ccccc12.[Mg+2] [Mg salt, magnesium salt of the enol form of 3-indolylpyruvic acid]",Inhibition %,[2]; 65 μM,46 ± 14%
same,Inhibition %,[2]; 130 μM,66 ± 7%
same,average length of the neurites,[1],40.1 ± 17.5 micrometers
"O=C(O)Cc1c[nH]c2ccccc12 [3-Indolylacetic acid, reference compound]",effect on neurite length (in words),[1],do not influence neurite length
same,average length of the neurites,[1],23.3 ± 10.5 micrometers
"O=C([O-])C(O)=Cc1c[nH]c2ccccc12.[Li+] [Li salt, lithium salt of the enol tautomer of 3-indolylpyruvic acid]",Inhibition %,[2]; 125 μM,48 ± 7%
same,Inhibition %,[2]; 250 μM,91 ± 5%
same,average length of the neurites,[1],29.4 ± 8.5 micrometers
O=C(O)C(O)Cc1c[nH]c2ccccc12 (centres unmarked) [3-Indolyllactic acid],effect on neurite length (in words),[1],noticeable effects on neurite length
same,average length of the neurites,[1],39.7 ± 11.8 micrometers
"O=C([O-])C(O)=Cc1c[nH]c2ccccc12.[K+] [K salt, potassium salt of the enol tautomer of 3-indolylpyruvic acid]",Inhibition %,[2]; 125 μM,51 ± 3%
same,Inhibition %,[2]; 250 μM,78 ± 3%
same,average length of the neurites,[1],44.1 ± 12.1 micrometers
"O=C([O-])C(O)=Cc1c[nH]c2ccccc12.O=C([O-])C(O)=Cc1c[nH]c2ccccc12.[Ca+2] [Ca salt, calcium salt of the enol form of 3-indolylpyruvic acid]",Inhibition %,[2]; 70 μM,38 ± 10%
same,Inhibition %,[2]; 140 μM,82 ± 6%
same,average length of the neurites,[1],32.7 ± 8.3 micrometers
"O=C(O)/C(O)=C/c1c[nH]c2ccccc12 [3-IPA ENOL, enol tautomer of 3-indolylpyruvic acid]",solubility in acetone,[3]; acetone,highly soluble
same,solubility in chloroform,[3]; chloroform,wholly insoluble
same,solubility in ethanol,[3]; ethanol,highly soluble
same,solubility in ethyl ether,[3]; ethyl ether,slightly soluble
same,solubility in methanol,[3]; methanol,highly soluble
same,solubility in water,[3]; water,wholly insoluble
same,time in which keto-enol equilibrium shifts towards the keto form,[4]; diluted NaOH solutions,a few seconds
same,stability in methanol,"[4]; methanol, several days at room temperature",extremely stable
same,enol form remaining,"[4]; phosphate solution pH 7.4, +30 min",44%
same,enol form remaining,[4]; [13],23%
same,gem-diole form formed,[4]; [13],44%
same,gem-diole form formed,"[4]; phosphate solution pH 7.4, about +2 hours",~49%
same,stability in slightly alkaline buffer environments,"[5]; pH 7.4, rat tissue homogenates",good stability
same,transformation into 3-indolyl-lactic acid,[6],No transformation
same,concentration at 1 hour,"[7]; 100 mg/kg, chronic",183 ± 78 µg/mL
same,concentration at 1 h,"[7]; 100 mg/kg, gastric lavage, 100 mg/Kg, acute, +1 hour",74 ± 14 µg/mL
same,concentration at 1 hour,"[7]; 400 mg/kg, acute",160 ± 13 µg/mL
same,concentration at 1 hour,"[7]; 400 mg/kg, chronic",189 ± 68 µg/mL
same,concentration at 1 h,"[8]; 100 mg/kg, chronic, read-out: plasma rate",97 ± 17 µg/mL
same,concentration at 1 h,"[8]; 100 mg/kg, food-mixed pellets, 100 mg/Kg, acute, read-out: plasma rate",106 ± 47 µg/mL
same,concentration at 1 h,"[8]; 285 mg/kg, acute, read-out: plasma concentration",136 ± 17 µg/mL
same,concentration at 1 h,"[8]; 285 mg/kg, chronic, read-out: plasma concentration",120 ± 8 µg/mL
same,neutralizing power towards superoxide anion and hydroxyl ions,[9],strong neutralizing power
same,enol plasma concentration curve,[10],remaining at clearly detectable levels for a few hours
same,observed effects compared with the mixture of the two tautomers,[11]; mixture in pH 7.4 phosphate buffer,clearly superior
same,pharmacological properties on the cardiovasculary system,[11]; orally and by IP injection,"pressure reduction in hypertensive rats, but not in normotensive rats"
same,pharmacological properties on the central nervous system,[11]; orally and by IP injection,"prolongation of sleep, central analgesia, protection from NMDA-induced convulsions, reduction of toxic effects from opiates, anxiolytic and antidepressant effects, stress inhibition"
same,inhibition at 125 µM,"[2]; Homo sapiens, 125 μM",44 ± 5%
same,inhibition at 250 µM,"[2]; Homo sapiens, 250 μM",77 ± 11%
same,inhibition at 500 µM,"[2]; Homo sapiens, 500 μM",97 ± 2%
same,average length of the neurites,[1],31.9 ± 6.8 micrometers
"O=C(O)C(=O)Cc1c[nH]c2ccccc12 [keto form, reference compound]",transformation to tryptophan or to 3-indolyl-lactic acid,[5]; rat tissue homogenates,no significant transformations
same,effects on the considered pharmacological parameters,[11]; keto form solubilized in 0.1M NaOH,no apparent effects
O=C(O)C(=O)Cc1c[nH]c2ccccc12 [3-indolylpyruvic acid],time in which UV spectrum of the enol tautomer converted to that of the keto tautomer,[12]; Schwarz 1961,over 2 hours
same,time in which largely converted to the keto form,"[12]; solution at pH 8.0, Schwarz and Bitancourt 1960",20 min
"O=C([O-])C(O)=Cc1c[nH]c2ccccc12.[Na+] [Na salt, sodium salt of the enol form of 3-indolylpyruvic acid]",Inhibition %,[2]; 125 μM,52 ± 1%
same,Inhibition %,[2]; 250 μM,78 ± 3%
same,average length of the neurites,[1],28.3 ± 16.4 micrometers
